Data: patent publication US6225478A, “Iridoid derivatives and neovascularization inhibitors containing the same as active ingredient” (Tsumura & Co., priority 1999, dated 2001)

Assays:
Assay type in all cases: cell-based
[1] = test system: human umbilical-vein endothelial cells (HUVEC); assay: Tube Formation Assay (TFA) Test, HUVEC in collagen gel; conditions: 20 hours, 40% or less judged remarkable; for inhibition at 1 µg/mL / inhibition at 10 µg/mL: Homo sapiens, HUVEC, 20 h, read-out: TFA (inhibition rate, %)
Outline: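 HUVEC (7th subculture, 1×10^5 cells/ml) attached to collagen gel for 2 h at 37 °C, given sample and overlaid with collagen, then cultured 20 h at 37 °C, 5% CO2 in M-199 with 20% FCS, 30 ng/ml b-FGF and 0.1 μM PMA. Tube length measured by image analysis; % inhibition relative to positive and negative controls.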

[2] = test system: human umbilical-vein endothelial cells (HUVEC); assay: Cell Migration Assay (CMA) Test, HUVEC (% relative to control); conditions: 24 hours, 60% or less = remarkable inhibition; for activity at 1 µg/mL / activity at 10 µg/mL: Homo sapiens, HUVEC, read-out: CMA (% relative to control)
Outline: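 Confluent 7th-subculture HUVEC monolayers scraped with razor blade, then given M199 (2+) plus 40 or 4 μl of 1 mg/ml sample (in 5% DMSO-PBS) per 4.0 ml medium for 24 h at 37 °C. Methanol-fixed, Giemsa-stained; newly migrated cells counted microscopically in 1 mm×1 mm blocks, expressed versus M199 (2+) control.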

[3] = test system: human umbilical-vein endothelial cells (HUVEC); assay: Cell Proliferation Assay (CPA) Test, HUVEC, MTT; conditions: M199 (2+) medium; for IC50: Homo sapiens, read-out: CPA (IC50 μg/ml)
Outline: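 HUVEC (7th subculture) seeded at 5×10^4 cells/ml in M-199 with 20% FCS, 10 ng/ml b-FGF and 10 ng/ml EGF, grown 24 h at 37 °C, 5% CO2. Compounds added from 1 mg/ml or 0.1 mg/ml samples in 5% DMSO-PBS(−), renewed with medium after 24 h, then cultured 48 h more. Read-out by MTT with 4 h incubation and SDS/HCl stop.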

Molecule | inhibition at 1 µg/mL ([1]; 1 μg/ml) | inhibition at 10 µg/mL ([1]; 10 μg/ml) | activity at 1 µg/mL ([2]; 1 μg/ml) | activity at 10 µg/mL ([2]; 10 μg/ml) | IC50 [3] | TFA (inhibition rate, %) ([1]; 1 μg/ml) | TFA (inhibition rate, %) ([1]; 10 μg/ml) | CMA (% relative to control) ([2]; 1 μg/ml) | CMA (% relative to control) ([2]; 10 μg/ml) | CPA (IC50 μg/ml) [3]
CCCCCC[C@]12O[C@H]1C[C@@H]1C(C(=O)OC)=CO[C@@H](OC(=O)NC)[C@@H]12 [compound 44, (1S,4aS,6S,7R,7aR)-6. 7-epoxy-7-n-hexyl-1,4a,5,6,7,7a-hexahydro-1-(methylcarbamoyloxy) cyclopenta [c] pyrane-4-carboxylic acid methy:lester] | 69.7% | 71.4% | 99.4% | 98.2% | > 100 µg/mL | – | – | – | – | –
CNC(=O)O[C@@H]1OC=C(C(=O)OC)[C@H]2C[C@@H]3O[C@]3(COC(C)=O)[C@@H]12 [compound 46, (1S,4aS,6S. 7R,7aR)-7-(acetoxymethyl)-6,7-epoxy-1-(methylcarbamoyloxy)-1,4a,5,6,7,7a-hexahydro [c] pyrane-4-carboxylic acid methylester] | -0.8% | 1.5% | 105% | 103% | > 100 µg/mL | – | – | – | – | –
CNC(=O)O[C@@H]1OC=C(C(=O)OC)[C@H]2C[C@@H]3O[C@]3(CF)[C@@H]12 [compound 50, (1S,4aS,6S,7R,7aR)-6,7-epoxy-7-(fluoromethyl)-1-(methylcarbamoloxy)-1,4a,5,6,7,7a-hexahydrocyclopenta [c] pyrane-4-carboxylic acid methylester] | 9.5% | 23.2% | 87.9% | 63.5% | > 100 µg/mL | – | – | – | – | –
CNC(=O)O[C@@H]1OC=C(C(=O)OC)[C@H]2CC[C@@]3(CO3)[C@@H]12 [compound 52, (1S,4aS,7R,7aR)-1-(methylcarbamoyloxy)-1,4a,5,6,7,7a-hexahydrospiro [cyclopenta [c]pyrane-7(1H),2'-oxirane]-4-carboxylic acid methylester] | 21.7% | -6.5% | 101% | 103% | > 100 µg/mL | – | – | – | – | –
CNC(=O)O[C@@H]1OC=C(C(=O)OC)[C@H]2CC[C@]3(CO3)[C@@H]12 [compound 53, (1S,4aS,7S,7aR)-1-(methylcarbamoyloxy)-1,4a,5,6,7,7a-hexahydrospiro [cyclopenta [c]pyrane-7(1H),2'-oxirane]-4-carboxylic acid methylester] | 26% | 9.7% | 100% | 94.1% | > 100 µg/mL | – | – | – | – | –
CNC(=O)OC=C(C(=O)OC)[C@@H]1CC[C@]2(C)O[C@@]12CO [compound 54, 2-[(1S,2R,3S)-2,3-epoxy-2-(hydroxymethyl)-3-methyl-2-cyclopentyl]-3-[(methylcarbamoyl)oxy] methylacrylate] | – | – | – | – | – | -8.6% | -12.2% | 90.5% | 86.2% | > 100.0 µg/mL
Protamine [reference compound] | – | – | – | – | – | 41.0% | 25.4% | 69.2% | 50.0% | 52.7 µg/mL
